Results on two compounds are retold here after US20260376293A1, “METHODS FOR STUDYING GPR158 PHARMACOLOGY AND IDENTIFICATION OF ITS LIGANDS” (UNIVERSITY OF FLORIDA RESEARCH FOUNDATION, INCORPORATED, priority 2022, published 2026).

Each structure is given as a SMILES string.

For one test, the system named is GlyRs. The settings on record: cited from earlier work.
The target of the next test is T1, GPR158 R173A mutant (Homo sapiens, UniProt Q5T848, R173A).
T1 sequence (Q5T848 24-1215 R173A): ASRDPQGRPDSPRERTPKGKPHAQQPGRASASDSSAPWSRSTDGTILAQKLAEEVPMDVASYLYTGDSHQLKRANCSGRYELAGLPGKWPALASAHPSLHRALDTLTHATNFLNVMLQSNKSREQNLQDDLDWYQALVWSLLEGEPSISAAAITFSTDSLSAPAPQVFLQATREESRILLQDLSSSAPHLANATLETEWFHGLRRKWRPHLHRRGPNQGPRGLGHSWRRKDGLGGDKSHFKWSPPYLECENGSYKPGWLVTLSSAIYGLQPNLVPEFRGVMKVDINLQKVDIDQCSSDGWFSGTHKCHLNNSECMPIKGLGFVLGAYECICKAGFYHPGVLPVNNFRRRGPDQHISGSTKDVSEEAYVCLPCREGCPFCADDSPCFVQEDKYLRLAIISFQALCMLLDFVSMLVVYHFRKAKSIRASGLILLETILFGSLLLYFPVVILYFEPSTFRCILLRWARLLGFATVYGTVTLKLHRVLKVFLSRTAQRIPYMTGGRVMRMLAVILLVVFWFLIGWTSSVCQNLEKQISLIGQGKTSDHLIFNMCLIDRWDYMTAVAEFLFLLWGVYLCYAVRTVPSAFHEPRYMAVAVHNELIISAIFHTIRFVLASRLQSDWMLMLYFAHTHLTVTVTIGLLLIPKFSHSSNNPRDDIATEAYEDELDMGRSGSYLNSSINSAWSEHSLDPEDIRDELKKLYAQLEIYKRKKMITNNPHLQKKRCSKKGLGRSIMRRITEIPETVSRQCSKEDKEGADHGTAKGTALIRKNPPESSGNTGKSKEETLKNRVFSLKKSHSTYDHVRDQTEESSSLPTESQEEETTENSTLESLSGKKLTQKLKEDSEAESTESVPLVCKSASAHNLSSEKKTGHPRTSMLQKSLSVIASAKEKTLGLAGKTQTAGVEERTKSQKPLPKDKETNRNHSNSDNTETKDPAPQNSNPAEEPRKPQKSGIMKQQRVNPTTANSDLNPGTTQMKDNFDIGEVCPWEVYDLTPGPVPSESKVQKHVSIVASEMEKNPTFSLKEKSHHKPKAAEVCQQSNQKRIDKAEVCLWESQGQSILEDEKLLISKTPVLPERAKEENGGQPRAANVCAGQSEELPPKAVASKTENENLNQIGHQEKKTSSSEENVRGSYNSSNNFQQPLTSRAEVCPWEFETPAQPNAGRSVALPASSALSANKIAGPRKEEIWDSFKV
The test can be described thus: Radioligand binding assay on GPR158 mutant R173A. From the text: FIGS. 11A-11G. Probing Cache domain of GPR158 as a ligand binding site A) Computational docking of glycine into putative ligand binding pocket on GPR158 Cache domain. Glycine and directly interacting residues are shown as sticks. Hydrogen bonds and van der Waals interactions are shown as dotted lines. B) Diagram showing interactions in the docked model of glycine against GPR158 Cache domain. Hydrogen bonds are shown as dashed lines, van der Waals interactions are shown as intersecting semicircles, and the secondary structural context of Ser266 and Tyr269 is shown as an arc. Dagger indicates a residue implicated in glycine binding in 11A. C) Radioligand binding assay of ^3H-glycine in cells expressing GPR158 mutants. Data shown mean±s.e.m. of 3 independent experiments, *p<0.05, ns=p>0.05 one-way ANOVA. D) Functional evaluation of GPR158 mutants in GAP BRET assay. Error bars are mean±s.e.m. of 3 independent experiments in triplicate. *p<0.05, **p<0.01, ***p<0.001, ****p<0.0001, ns=p>0.05, two-way ANOVA Columns with no fill (Ctrl), columns with angled-line fill (Glycine) E) Quantification of glycine inhibitory effect on kGAP normalized to the effect seen with WT receptor. […]
Whole cell binding was performed using cDNA of GPR158-venus or each GPR158-venus mutant or empty pcDNA3.1+ for ctrl cells. […] Finally radioactivity was measured using the liquid scintillation analyzer Tri-Carb 4910 TR.

For `NCC(=O)O` [glycine], the “affinity of GlyRs for glycine relative to mGlyR” value with GlyRs is recorded as “an order of magnitude lower affinity”.

For the compound `NCC(=O)O` [^3H-glycine, [^3H]-glycine], the “[^3H]-glycine binding” value at GPR158 R173A mutant is given as “near complete loss”.
